In US20230284620A1, “MIXTURES OF PYRIDAZINES AS HERBICIDAL COMPOSITIONS” (SYNGENTA CROP PROTECTION AG, priority 2020, published 2023):

What was measured:
Experiment in all cases: Post-emergence glasshouse herbicide test, visual phytotoxicity
Assay type in all cases: in vivo
Settings in all cases: 13 days
[1] = system: Abutilon threophrasti (ABUTH)
Description: (§1) Seeds of Setaria faberi (SETFA), Echinochloa crus-galli (ECHCG), Digitaria sanguinalis (DIGSA), Lolium perenne (LOLPE), Alopecurus myosuroides (ALOMY), Chenopodium album (CHEAL), Ipomoea hederacea (IPOHE), Stellaria media (STEME), Abutilon threophrasti (ABUTH) and Amaranthus retroflexus (AMARE) were sown in standard sterilised soil in pots. After cultivation for 8 days under controlled conditions in a glasshouse (at 24/19° C., day/night; 16 hours light; no humidity control), the plants were sprayed at 500 l/Ha with an aqueous spray solution derived from the formulation of the technical active ingredients in a small amount of acetone and a solvent and emulsifier mixture referred to as IF50 (11.12% Emulsogen EL360 TM+44.44% N-methylpyrrolidone+44.44% Dowanol DPM glycol ether), to create a 50 g/l solution which was then diluted using 0.2% Genapol X080 (CAS Number: 9043-30-5) as diluent to give the desired final dose of test compound.
(§2) Where active ingredients were applied as mixtures, aqueous spray solutions were prepared as above, containing both active ingredients.
(§3) The test plants were then grown under controlled conditions in a glasshouse (at 24/18° C., day/night; 15 hours light; 50% humidity) and watered twice daily. After 13 days, the test was evaluated visually for percentage phytotoxicity to the plants (where 100=total damage to plant; 0=no damage to plant; and NC=not captured) when compared to control untreated plants. Two to four replicates were applied for each treatment in a randomised block test design.
(§4) 22., E=X+Y−(X*Y/100), where • X=average percent phytotoxicity of herbicide A when applied at a certain rate • Y=average percent phytotoxicity using herbicide B when applied at a certain rate • E=the expected effect of the mixture of herbicides A and B as calculated from the Colby formula.

[2] = system: Alopecurus myosuroides (ALOMY)
Description: as §1, §2, §3, §4

[3] = system: Amaranthus retroflexus (AMARE)
Description: as §1, §2, §3, §4

[4] = system: Chenopodium album (CHEAL)
Description: as §1, §2, §3, §4

[5] = system: Digitaria sanguinalis (DIGSA)
Description: as §1, §2, §3, §4

[6] = system: Echinochloa crus-galli (ECHCG)
Description: as §1, §2, §3, §4

[7] = system: Ipomoea hederacea (IPOHE)
Description: as §1, §2, §3, §4

Lolium perenne (LOLPE) = system: Lolium perenne (LOLPE)
Description: as §1, §2, §3, §4

Setaria faberi (SETFA) = system: Setaria faberi (SETFA)
Description: as §1, §2, §3, §4

Stellaria media (STEME) = system: Stellaria media (STEME)
Description: as §1, §2, §3, §4

In the case of `COc1c(Cl)ccc(-c2nc(C(=O)OCc3ccccc3)c(Cl)c(N)c2F)c1F` [B-I], the “percentage phytotoxicity ABUTH” value ([1]; 0.625 g/ha) was 78%, the “percentage phytotoxicity ABUTH” value ([1]; 1.25 g/ha) was 80% and the “percentage phytotoxicity ABUTH” value ([1]; 2.5 g/ha) was 83%. The “percentage phytotoxicity ABUTH” value ([1]; 5 g/ha) was 90%, the “percentage phytotoxicity ABUTH” value ([1]; 10 g/ha) was 85% and the “percentage phytotoxicity ALOMY” value ([2]; 0.625 g/ha) was 0%. For the same compound, the “percentage phytotoxicity ALOMY” value ([2]; 1.25 g/ha) was 0%, the “percentage phytotoxicity ALOMY” value ([2]; 2.5 g/ha) was 0% and the “percentage phytotoxicity ALOMY” value ([2]; 5 g/ha) was 0%. For the same compound, the “percentage phytotoxicity ALOMY” value ([2]; 10 g/ha) was 5%, the “percentage phytotoxicity AMARE” value ([3]; 0.625 g/ha) was 63% and the “percentage phytotoxicity AMARE” value ([3]; 1.25 g/ha) was 70%. The “percentage phytotoxicity AMARE” value ([3]; 2.5 g/ha) was 80%, the “percentage phytotoxicity AMARE” value ([3]; 5 g/ha) was 80% and the “percentage phytotoxicity AMARE” value ([3]; 10 g/ha) was 93%. The “percentage phytotoxicity CHEAL” value ([4]; 0.625 g/ha) was 85%, the “percentage phytotoxicity CHEAL” value ([4]; 1.25 g/ha) was 73% and the “percentage phytotoxicity CHEAL” value ([4]; 2.5 g/ha) was 83%. The “percentage phytotoxicity CHEAL” value ([4]; 5 g/ha) was 91%, the “percentage phytotoxicity CHEAL” value ([4]; 10 g/ha) was 93% and the “percentage phytotoxicity DIGSA” value ([5]; 0.625 g/ha) was 0%. For the same compound, the “percentage phytotoxicity DIGSA” value ([5]; 1.25 g/ha) was 8%, the “percentage phytotoxicity DIGSA” value ([5]; 2.5 g/ha) was 0% and the “percentage phytotoxicity DIGSA” value ([5]; 5 g/ha) was 0%. The “percentage phytotoxicity DIGSA” value ([5]; 10 g/ha) was 0%, the “percentage phytotoxicity ECHCG” value ([6]; 0.625 g/ha) was 0% and the “percentage phytotoxicity ECHCG” value ([6]; 1.25 g/ha) was 8%. The “percentage phytotoxicity ECHCG” value ([6]; 2.5 g/ha) was 0%, the “percentage phytotoxicity ECHCG” value ([6]; 5 g/ha) was 0% and the “percentage phytotoxicity ECHCG” value ([6]; 10 g/ha) was 10%. The “percentage phytotoxicity IPOHE” value ([7]; 0.625 g/ha) was 53%, the “percentage phytotoxicity IPOHE” value ([7]; 1.25 g/ha) was 58% and the “percentage phytotoxicity IPOHE” value ([7]; 2.5 g/ha) was 58%. For the same compound, the “percentage phytotoxicity IPOHE” value ([7]; 5 g/ha) was 63%, the “percentage phytotoxicity IPOHE” value ([7]; 10 g/ha) was 75% and the “percentage phytotoxicity LOLPE” value (Lolium perenne (LOLPE); 0.625 g/ha) was 0%. The “percentage phytotoxicity LOLPE” value (Lolium perenne (LOLPE); 1.25 g/ha) was 10%, the “percentage phytotoxicity LOLPE” value (Lolium perenne (LOLPE); 2.5 g/ha) was 0% and the “percentage phytotoxicity LOLPE” value (Lolium perenne (LOLPE); 5 g/ha) was 0%. For the same compound, the “percentage phytotoxicity LOLPE” value (Lolium perenne (LOLPE); 10 g/ha) was 0%, the “percentage phytotoxicity SETFA” value (Setaria faberi (SETFA); 0.625 g/ha) was 0% and the “percentage phytotoxicity SETFA” value (Setaria faberi (SETFA); 1.25 g/ha) was 5%. The “percentage phytotoxicity SETFA” value (Setaria faberi (SETFA); 2.5 g/ha) was 0%, the “percentage phytotoxicity SETFA” value (Setaria faberi (SETFA); 5 g/ha) was 0% and the “percentage phytotoxicity SETFA” value (Setaria faberi (SETFA); 10 g/ha) was 5%. The “percentage phytotoxicity STEME” value (Stellaria media (STEME); 0.625 g/ha) was 63%, the “percentage phytotoxicity STEME” value (Stellaria media (STEME); 1.25 g/ha) was 65% and the “percentage phytotoxicity STEME” value (Stellaria media (STEME); 2.5 g/ha) was 80%. For the same compound, the “percentage phytotoxicity STEME” value (Stellaria media (STEME); 5 g/ha) was 85% and the “percentage phytotoxicity STEME” value (Stellaria media (STEME); 10 g/ha) was 90%.

In the case of `CS(=O)(=O)c1ccc(C(=O)C2C(=O)CCCC2=O)c(Cl)c1OCCC1OCCO1` [B-II], the “percentage phytotoxicity ABUTH” value ([1]; 0.625 g/ha) was 0%, the “percentage phytotoxicity ABUTH” value ([1]; 1.25 g/ha) was 40% and the “percentage phytotoxicity ABUTH” value ([1]; 2.5 g/ha) was 43%. For the same compound, the “percentage phytotoxicity ABUTH” value ([1]; 5 g/ha) was 58%, the “percentage phytotoxicity ABUTH” value ([1]; 10 g/ha) was 70% and the “percentage phytotoxicity ALOMY” value ([2]; 0.625 g/ha) was 0%. The “percentage phytotoxicity ALOMY” value ([2]; 1.25 g/ha) was 3%, the “percentage phytotoxicity ALOMY” value ([2]; 2.5 g/ha) was 0% and the “percentage phytotoxicity ALOMY” value ([2]; 5 g/ha) was 5%. For the same compound, the “percentage phytotoxicity ALOMY” value ([2]; 10 g/ha) was 0%, the “percentage phytotoxicity AMARE” value ([3]; 0.625 g/ha) was 0% and the “percentage phytotoxicity AMARE” value ([3]; 1.25 g/ha) was 13%. For the same compound, the “percentage phytotoxicity AMARE” value ([3]; 2.5 g/ha) was 25%, the “percentage phytotoxicity AMARE” value ([3]; 5 g/ha) was 53% and the “percentage phytotoxicity AMARE” value ([3]; 10 g/ha) was 58%. For the same compound, the “percentage phytotoxicity CHEAL” value ([4]; 0.625 g/ha) was 5%, the “percentage phytotoxicity CHEAL” value ([4]; 1.25 g/ha) was 15% and the “percentage phytotoxicity CHEAL” value ([4]; 2.5 g/ha) was 30%. For the same compound, the “percentage phytotoxicity CHEAL” value ([4]; 5 g/ha) was 55%, the “percentage phytotoxicity CHEAL” value ([4]; 10 g/ha) was 65% and the “percentage phytotoxicity DIGSA” value ([5]; 0.625 g/ha) was 0%. The “percentage phytotoxicity DIGSA” value ([5]; 1.25 g/ha) was 5%, the “percentage phytotoxicity DIGSA” value ([5]; 2.5 g/ha) was 0% and the “percentage phytotoxicity DIGSA” value ([5]; 5 g/ha) was 10%. The “percentage phytotoxicity DIGSA” value ([5]; 10 g/ha) was 3%, the “percentage phytotoxicity ECHCG” value ([6]; 0.625 g/ha) was 0% and the “percentage phytotoxicity ECHCG” value ([6]; 1.25 g/ha) was 5%. The “percentage phytotoxicity ECHCG” value ([6]; 2.5 g/ha) was 0%, the “percentage phytotoxicity ECHCG” value ([6]; 5 g/ha) was 8% and the “percentage phytotoxicity ECHCG” value ([6]; 10 g/ha) was 5%. For the same compound, the “percentage phytotoxicity IPOHE” value ([7]; 0.625 g/ha) was 5%, the “percentage phytotoxicity IPOHE” value ([7]; 1.25 g/ha) was 15% and the “percentage phytotoxicity IPOHE” value ([7]; 2.5 g/ha) was 20%. The “percentage phytotoxicity IPOHE” value ([7]; 5 g/ha) was 45%, the “percentage phytotoxicity IPOHE” value ([7]; 10 g/ha) was 55% and the “percentage phytotoxicity LOLPE” value (Lolium perenne (LOLPE); 0.625 g/ha) was 0%. The “percentage phytotoxicity LOLPE” value (Lolium perenne (LOLPE); 1.25 g/ha) was 5%, the “percentage phytotoxicity LOLPE” value (Lolium perenne (LOLPE); 2.5 g/ha) was 0% and the “percentage phytotoxicity LOLPE” value (Lolium perenne (LOLPE); 5 g/ha) was 5%. The “percentage phytotoxicity LOLPE” value (Lolium perenne (LOLPE); 10 g/ha) was 0%, the “percentage phytotoxicity SETFA” value (Setaria faberi (SETFA); 0.625 g/ha) was 0% and the “percentage phytotoxicity SETFA” value (Setaria faberi (SETFA); 1.25 g/ha) was 3%. For the same compound, the “percentage phytotoxicity SETFA” value (Setaria faberi (SETFA); 2.5 g/ha) was 0%, the “percentage phytotoxicity SETFA” value (Setaria faberi (SETFA); 5 g/ha) was 5% and the “percentage phytotoxicity SETFA” value (Setaria faberi (SETFA); 10 g/ha) was 0%. For the same compound, the “percentage phytotoxicity STEME” value (Stellaria media (STEME); 0.625 g/ha) was 0%, the “percentage phytotoxicity STEME” value (Stellaria media (STEME); 1.25 g/ha) was 10% and the “percentage phytotoxicity STEME” value (Stellaria media (STEME); 2.5 g/ha) was 28%. For the same compound, the “percentage phytotoxicity STEME” value (Stellaria media (STEME); 5 g/ha) was 53% and the “percentage phytotoxicity STEME” value (Stellaria media (STEME); 10 g/ha) was 70%.
